Assay results: patent US8076488B2, “Bicyclic urea derivatives useful in the treatment of cancer and other disorders” (Bayer Healthcare LLC, priority 2003, dated 2011)
Counter-ions that a name gives are not always drawn.

target: T1, c-Raf kinase (Lck-activated c-Raf, Raf-1) (Homo sapiens, UniProt P04049); experiment: c-Raf (Raf-1) biochemical assay (radioactive filtermat assay, MEK-1 substrate); conditions: at 1 micromolar compound; 5 μM ATP, 32° C., 1 hour
T1 construct: GST-c-Raf (from amino acid 302 to amino acid 648); made in house; host or cells: Sf9 insect cells (baculovirus; co-infection with full-length Lck)
T1 sequence (P04049 302-648): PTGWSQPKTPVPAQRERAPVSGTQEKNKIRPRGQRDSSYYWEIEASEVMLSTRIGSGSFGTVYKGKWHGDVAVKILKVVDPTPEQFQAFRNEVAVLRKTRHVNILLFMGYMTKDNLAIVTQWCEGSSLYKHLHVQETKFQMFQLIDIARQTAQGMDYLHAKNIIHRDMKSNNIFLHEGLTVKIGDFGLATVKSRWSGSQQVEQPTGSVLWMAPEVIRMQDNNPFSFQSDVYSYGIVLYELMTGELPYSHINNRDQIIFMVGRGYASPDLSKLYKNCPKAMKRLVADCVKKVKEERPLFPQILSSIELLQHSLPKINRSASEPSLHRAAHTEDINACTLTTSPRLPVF
Experimental: Biological Tests c-Raf (Raf-1) Biochemical Assay Purification of Proteins Used in the Assay
The c-Raf biochemical assay was performed with a c-Raf enzyme that was activated (phosphorylated) by Lck kinase. Lck-activated c-Raf (Lck/c-Raf) was produced in Sf9 insect cells by co-infecting cells with baculoviruses expressing, under the control of the polyhedrin promoter, GST-c-Raf (from amino acid 302 to amino acid 648) and Lck (full-length). Both baculoviruses were used at the multiplicity of infection of 2.5 and the cells were harvested 48 hours post infection.
MEK-1 protein was produced in Sf9 insect cells by infecting cells with the baculovirus expressing GST-MEK-1 (full-length) fusion protein at the multiplicity of infection of 5 and harvesting the cells 48 hours post infection. Similar purification procedure was used for GST-c-Raf 302-648 and GST-MEK-1.
Transfected cells were suspended at 100 mg of wet cell biomass per mL in a buffer containing 10 mM sodium phosphate, 140 mM sodium chloride pH 7.3, 0.5% Triton X-100 and the protease inhibitor cocktail. The cells were disrupted with Polytron homogenizer and centrifuged 30,000 g for 30 minutes. The 30,000 g supernatant was applied onto GSH-Sepharose. The resin was washed with a buffer containing 50 mM Tris, pH 8.0, 150 mM NaCl and 0.01% Triton X-100. The GST-tagged proteins were eluted with a solution containing 100 mM Glutathione, 50 mM Tris, pH 8.0, 150 mM NaCl and 0.01% Triton X-100. The purified proteins were dialyzed into a buffer containing 20 mM Tris, pH 7.5, 150 mM NaCl and 20% Glycerol.
Biochemical Assay Protocol and Results
The compounds were serially diluted in DMSO using three-fold dilutions to stock concentrations ranging typically from 50 μM to 20 nM (final concentrations in the assay range from 1 μM to 0.4 nM). The c-Raf biochemical assay was performed as a radioactive filtermat assay in 96-well Costar polypropylene plates (Costar 3365). The plates were loaded with 75 μL solution containing 50 mM HEPES pH 7.5, 70 mM NaCl, 80 ng of Lck/c-Raf and 1 μg MEK-1. Subsequently, 2 μL of the serially diluted individual compounds were added to the reaction, prior to the addition of ATP. The reaction was initiated with 25 μL ATP solution containing 5 μM ATP and 0.3 μCi [33P]-ATP. The plates were sealed and incubated at 32° C. for 1 hour. The reaction was quenched with the addition of 50 μl of 4% Phosphoric Acid and harvested onto P30 filtermats (PerkinElmer) using a Wallac Tomtec Harvester. Filtermats were washed with 1% Phosphoric Acid first and deinonized H2O second. The filters were dried in a microwave, soaked in scintillation fluid and read in a Wallac 1205 Betaplate Counter (Wallac Inc., Atlanta, Ga., U.S.A.). The results were expressed as percent inhibition. % Inhibition=[[…]]×100 where • Tib=(counts per minute with inhibitor)−(background) • Ti=(counts per minute without inhibitor)−(background)

Inhibition at 1 µM, > 40%:
COC(=O)c1cc(Oc2cccc(NC(=O)Nc3ccc4c(cnn4C)c3)c2)ccn1 [Example 2, Methyl 4-[3-({[(1-methyl-1H-indazol-5-yl)amino]carbonyl}amino)phenoxy]-pyridine-2-carboxylate]
CC(=O)c1cc(Oc2ccc(NC(=O)Nc3ccc4c(cnn4C)c3)cc2)ccn1 [Example 3, N-{4-[(2-acetylpyridin-4-yl)oxy]phenyl}-N′-(1-methyl-1H-indazol-5-yl)urea]
CNC(=O)c1cc(Oc2ccc(NC(=O)Nc3ccc4nc(C)oc4c3)cc2)ccn1 [Example 6]
CNC(=O)c1cc(Oc2ccc(NC(=O)Nc3cccc4c3CCC4)cc2)ccn1 [Example 7]
CNC(=O)c1cc(Oc2ccc(NC(=O)Nc3ccc4nn(C)cc4c3)cc2)ccn1 [Example 9]
CNC(=O)c1cc(Oc2ccc(NC(=O)Nc3ccc4c(c3)N(C(C)=O)CC4)cc2)ccn1 [Example 10]
CNC(=O)c1cc(Oc2ccc(NC(=O)Nc3nc4ccc(Cl)cc4s3)cc2)ccn1 [Example 11]
CNC(=O)c1cc(Oc2ccc(NC(=O)Nc3nc4ccc(OC(F)(F)F)cc4s3)cc2)ccn1 [Example 12]
CNC(=O)c1cc(Oc2ccc(NC(=O)Nc3nc4ccc(F)cc4s3)cc2)ccn1 [Example 13]
CNC(=O)c1cc(Oc2ccc(NC(=O)Nc3nc4ccc(OC)cc4s3)cc2)ccn1 [Example 14]
CNC(=O)c1cc(Oc2ccc(NC(=O)Nc3ccc4[nH]c(C)cc4c3)cc2)ccn1 [Example 16]
CNC(=O)c1cc(Oc2ccc(NC(=O)Nc3ccc4nccnc4c3)cc2)ccn1 [Example 17]
CNC(=O)c1cc(Oc2ccc(NC(=O)Nc3ccc4c(c3)OC(F)(F)O4)cc2)ccn1 [Example 20]
CNC(=O)c1cc(Oc2ccc(NC(=O)Nc3ccc4c(c3)CCC4=O)cc2)ccn1 [Example 22]
CNC(=O)c1cc(Oc2ccc(NC(=O)Nc3ccc4cnn(C)c4c3)cc2)ccn1 [Example 24]
CNC(=O)c1cc(Oc2ccc(NC(=O)Nc3ccc4[nH]nnc4c3)cc2)ccn1 [Example 26]
CNC(=O)c1cc(Oc2ccc(NC(=O)Nc3ccc4cn[nH]c4c3)cc2)ccn1 [Example 27]
CNC(=O)c1cc(Oc2ccc(NC(=O)Nc3ccc4[nH]c(C(F)(F)F)nc4c3)cc2)ccn1 [Example 28]
CCn1c(C)nc2cc(NC(=O)Nc3ccc(Oc4ccnc(C(=O)NC)c4)cc3)ccc21 [Example 29]
CNC(=O)c1cc(Oc2ccc(NC(=O)Nc3ccc4c(c3)CCN4S(C)(=O)=O)cc2)ccn1 [Example 31]
CNC(=O)c1cc(Oc2cccc(NC(=O)Nc3ccc4[nH]nnc4c3)c2)ccn1 [Example 37]
CCN(CC)CCn1ccc2cc(NC(=O)Nc3ccc(Oc4ccnc(C(=O)NC)c4)cc3F)ccc21 [Example 44]
CCN(CC)CCn1ncc2cc(NC(=O)Nc3ccc(Oc4ccnc(C(=O)NC)c4)cc3F)ccc21 [Example 45]
CNC(=O)c1cc(Oc2ccc(NC(=O)Nc3ccc4c(c3)OC(F)(F)C(F)(F)O4)c(C(F)(F)F)c2)ccn1 [Example 64]
CNC(=O)c1cc(Oc2ccc(NC(=O)Nc3ccc4sc(C)nc4c3)c(C(F)(F)F)c2)ccn1 [Example 65]
CNC(=O)c1cc(COc2ccc(NC(=O)Nc3ccc4c(cnn4C)c3)cc2)ccn1 [Example 88]
CNC(=O)c1cc(COc2cccc(NC(=O)Nc3ccc4c(cnn4C)c3)c2)ccn1 [Example 89]
Cc1nc2cc(NC(=O)Nc3ccc(Oc4ccnc(C(N)=O)c4)cc3)ccc2s1 [Example 91]
NC(=O)c1cc(Oc2ccc(NC(=O)Nc3ccc4c(c3)CCC4)c(Cl)c2)ccn1 [Example 95]
COC(=O)c1cc(Oc2ccc(NC(=O)Nc3ccc4c(cnn4C)c3)cc2)ccn1 [Example 98]
COCCNC(=O)c1cc(Oc2ccc(NC(=O)Nc3ccc4c(cnn4C)c3)c(F)c2)ccn1 [Example 99]
CN(C)C(=O)CNC(=O)c1cc(Oc2ccc(NC(=O)Nc3ccc4c(cnn4C)c3)cc2)ccn1 [Example 100]
CNC(=O)c1cc(Oc2ccc(NC(=O)Nc3nc4ccc([N+](=O)[O-])cc4s3)cc2)ccn1 [Example 102]
CNC(=O)c1cc(Oc2ccc(NC(=O)Nc3nc4c(F)cc(F)cc4s3)cc2)ccn1 [Example 103]
COC(=O)c1cc(Oc2cccc(NC(=O)Nc3ccc4c(c3)C(F)(F)OC(F)(F)O4)c2)ccn1 [Example 105, Methyl 4-[3-({[(2,2,4,4-tetrafluoro-4H-1,3-benzodioxin-6-yl)amino]-carbonyl}amino)phenoxy]pyridine-2-carboxylate]
CNC(=O)c1cc(Oc2cccc(NC(=O)Nc3ccc4[nH]ncc4c3)c2)ccn1 [Example 108, 4-(3-{[(1H-indazol-5-ylamino)carbonyl]amino}phenoxy)-N-methylpyridine-2-carboxamide dihydrochloride]
CNC(=O)c1cc(Oc2ccc(NC(=O)Nc3ccc4c(c3)C(F)(F)OC(F)(F)O4)cc2Cl)ccn1 [Example 115]
CNC(=O)c1cc(Oc2cccc(NC(=O)Nc3ccc4c(c3)C(F)(F)OC(F)(F)O4)c2)ccn1 [Example 117]
COC(=O)c1cncc(Oc2ccc(NC(=O)Nc3ccc4c(c3)C(F)(F)OC(F)(F)O4)cc2)c1 [Example 122]
CNC(=O)c1cc(Oc2ccc(NC(=O)Nc3cccc4c3OC(F)(F)C(F)(F)O4)cc2)ccn1 [Example 132]
CNC(=O)c1cc(Oc2ccc(NC(=O)Nc3ccc4c(c3)OCO4)cc2)ccn1 [Example 135]
O=C(Nc1ccc(Oc2ccnc(C(=O)NCCCn3ccnc3)c2)cc1)Nc1ccc2c(c1)C(F)(F)OC(F)(F)O2 [Example 145, N-[3-(1H-imidazol-1-yl)propyl]-4-[4-({[(2,2,4,4-tetrafluoro-4H-1,3-benzodioxin-6-yl)amino]carbonyl}amino)phenoxy]pyridine-2-carboxamide]
O=C(Nc1ccc(Oc2ccnc(C(=O)NCCN3CCCC3)c2)cc1)Nc1ccc2c(c1)C(F)(F)OC(F)(F)O2 [Example 146, N-(2-pyrrolidin-1-ylethyl)4-[4-({[(2,2,4,4-tetrafluoro-4H-1,3-benzodioxin-6-yl)-amino]carbonyl}amino)phenoxy]pyridine-2-carboxamide]
Cn1ncc2cc(NC(=O)Nc3ccc(Oc4ccnc(C(=O)NC5CC5)c4)cc3)ccc21 [Example 147, N-cyclopropyl-4-[4-({[(1-methyl-1H-indazol-5-yl)amino]-carbonyl}amino)phenoxy]pyridine-2-carboxamide]
Cn1ncc2cc(NC(=O)Nc3cccc(Oc4ccnc(C(=O)NCCN5CCCCC5)c4)c3)ccc21 [Example 148, 4-[3-({[(1-methyl-1H-indazol-5-yl)amino]carbonyl}amino)phenoxy]-N-(2-piperidin-1-ylethyl)pyridine-2-carboxamide]
NC(=O)c1cc(Oc2cc(F)c(NC(=O)Nc3ccc4c(c3)C(F)(F)OC(F)(F)O4)c(F)c2)ccn1 [Example 150, 4-[3,5-difluoro-4-({[(2,2,4,4-tetrafluoro-4H-1,3-benzodioxin-6-yl)amino]-carbonyl}amino)phenoxy]pyridine-2-carboxamide]
O=C(Nc1ccc(Oc2ccnc(C(=O)NCCN3CCCCC3)c2)cc1)Nc1ccc2c(c1)C(F)(F)OC(F)(F)O2 [Example 153]
O=C(Nc1ccc(Oc2ccnc(C(=O)Nc3ccccn3)c2)cc1)Nc1ccc2c(c1)C(F)(F)OC(F)(F)O2 [Example 155]
